Reference: the supplement of paper PMC11208160

assay: recombinant UMI read abundance after kanamycin selection (control-corrected) (log10(CPM+1)); higher = more efficient recombination; extreme values may be limits of the assay; sequences stand for … in AGTGCAGAGAAAATCGGCCAGTTTTCTCTGCCTGCAGTCCGCATGCCGTGGGACCCCTTGGGTTCTAACCTGTTGCCTAGATTTATGCAGCGGACTGCCTTTCTCCCAAAGTGATAAACCGG…AGGTTGGTTTCACT; site = the 11-nt donor
Summary of the method: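 Values are reported as log10(CPM+1), obtained by converting sequencing counts to CPM, averaging replicates and scaling by control-derived factors. The counts came from recombinant UMIs amplified by PCR across the donor–target junction. These UMIs came from a pooled Escherichia coli screen of donor and donor-binding-loop pairs for the IS621 bridge recombinase, plated with IPTG (0.07 mM) plus kanamycin or left unselected, in two replicates each.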
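Also: IS621 bridge recombinase in Escherichia coli cells against a fixed T5 target plasmid.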

Row | Sequence | recombinant UMI read abundance (log10)
1 | CGGGAAGCATGGACCGGTTTTCCCGGTAATCCGTATTTGAT (site CGGGAACCTAT) | 0
2 | CGGGAAGCATGGACCGGTTTTCCCGGTAATCCGTATTTGAT (site CGGGAAGCTAT) | 1.9
3 | CGGGAAGCATGGACCGGTTTTCCCGGTAATCCGTATTTGAT (site CGGGAATCTAT) | 1.85
4 | CGGGAATCATGGACCGGTTTTCCCGGTAATCCGTATTTGCC (site CGGGAATCTGG) | 2.51
5 | CGGGAATCATGGACCGGTTTTCCCGGTAATCCGTATTTGCC (site CGGGACTCTGG) | 1.28
6 | CGGGAATCATGGACCGGTTTTCCCGGTAATCCGTATTTGCC (site CGGGAGTCTGG) | 2.11
7 | CGGGAATCATGGACCGGTTTTCCCGGTAATCCGTATTTGCC (site CGGGATTCTGG) | 0.646
8 | CGGGACCCATGGACCGGTTTTCCCGGTAATCCGTATTTGAT (site CGGGAACCTAT) | 0.00853
9 | CGGGACCCATGGACCGGTTTTCCCGGTAATCCGTATTTGAT (site CGGGACCCTAT) | 0.879
10 | CGGGACCCATGGACCGGTTTTCCCGGTAATCCGTATTTGAT (site CGGGAGCCTAT) | 0.00629
11 | CGGGACCCATGGACCGGTTTTCCCGGTAATCCGTATTTGAT (site CGGGATCCTAT) | 0
12 | CGGGACGCATGGACCGGTTTTCCCGGTAATCCGTATTTGTA (site CGGGACGCTTA) | 2.82
13 | CGGGACTCATGGACCGGTTTTCCCGGTAATCCGTATTTGCC (site CGGGAATCTGG) | 2.14
14 | CGGGACTCATGGACCGGTTTTCCCGGTAATCCGTATTTGCC (site CGGGACTCTGG) | 3.01
15 | CGGGACTCATGGACCGGTTTTCCCGGTAATCCGTATTTGCC (site CGGGAGTCTGG) | 0
16 | CGGGACTCATGGACCGGTTTTCCCGGTAATCCGTATTTGCC (site CGGGATTCTGG) | 1.77
17 | CGGGAGTCATGGACCGGTTTTCCCGGTAATCCGTATTTGCA (site CGGGAGTCTAG) | 1.74
18 | CGGGAGTCATGGACCGGTTTTCCCGGTAATCCGTATTTGCA (site CGGGAGTCTCG) | 2.73
19 | CGGGAGTCATGGACCGGTTTTCCCGGTAATCCGTATTTGCA (site CGGGAGTCTGG) | 1.15
20 | CGGGAGTCATGGACCGGTTTTCCCGGTAATCCGTATTTGCA (site CGGGAGTCTTG) | 2.89
21 | CGGGCGTCATGGACCGGTTTTCCCGGTAATCCGTATTTGCC (site CGGGAGTCTGG) | 0
22 | CGGGCGTCATGGACCGGTTTTCCCGGTAATCCGTATTTGCC (site CGGGCGTCTGG) | 2.89
23 | CGGGCGTCATGGACCGGTTTTCCCGGTAATCCGTATTTGCC (site CGGGGGTCTGG) | 0

Row | Sequence | recombinant UMI read abundance (log10)
24 | CGGGCGTCATGGACCGGTTTTCCCGGTAATCCGTATTTGCC (site CGGGTGTCTGG) | 0
25 | CGGGGAACATGGACCGGTTTTCCCGGTAATCCGTATTTGTT (site CGAGGAACTAA) | 2.44
26 | CGGGGAACATGGACCGGTTTTCCCGGTAATCCGTATTTGTT (site CGCGGAACTAA) | 0.00411
27 | CGGGGAACATGGACCGGTTTTCCCGGTAATCCGTATTTGTT (site CGGGGAACTAA) | 2.6
28 | CGGGGAACATGGACCGGTTTTCCCGGTAATCCGTATTTGTT (site CGTGGAACTAA) | 0.548
29 | CGGGTACCATGGACCGGTTTTCCCGGTAATCCGTATTTGTA (site CGGGTACCTTA) | 0.00704
30 | CGGGTCACATGGACCGGTTTTCCCGGTAATCCGTATTTGGC (site CGGGTCACTGC) | 3.54
31 | CGGGTGTCATGGACCGGTTTTCCCGGTAATCCGTATTTGCC (site CGGGAGTCTGG) | 0.659
32 | CGGGTGTCATGGACCGGTTTTCCCGGTAATCCGTATTTGCC (site CGGGCGTCTGG) | 1.74
33 | CGGGTGTCATGGACCGGTTTTCCCGGTAATCCGTATTTGCC (site CGGGGGTCTGG) | 0
34 | CGGGTGTCATGGACCGGTTTTCCCGGTAATCCGTATTTGCC (site CGGGTGTCTGG) | 2.69
35 | CGGGTTCCATGGACCGGTTTTCCCGGTAATCCGTATTTGTT (site CGGAATCCTAA) | 0.00595
36 | CGGGTTCCATGGACCGGTTTTCCCGGTAATCCGTATTTGTT (site CGGGTTCCTAA) | 0.776
37 | CGGTAACCATGGACCGGTTTTCCCGGTAATCCGTATTTGAT (site CGGAAACCTAT) | 0
38 | CGGTAACCATGGACCGGTTTTCCCGGTAATCCGTATTTGAT (site CGGCAACCTAT) | 0.00415
39 | CGGTAACCATGGACCGGTTTTCCCGGTAATCCGTATTTGAT (site CGGGAACCTAT) | 0
40 | CGGTAACCATGGACCGGTTTTCCCGGTAATCCGTATTTGAT (site CGGTAACCTAT) | 0
41 | CGGTAGACATGGACCGGTTTTCCCGGTAATCCGTATTTGCA (site AGGAAGACTTG) | 0
42 | CGGTAGACATGGACCGGTTTTCCCGGTAATCCGTATTTGCA (site CGGTAGACTTG) | 2.84
43 | CGGTAGCCATGGACCGGTTTTCCCGGTAATCCGTATTTGCT (site CGGTAGCCTAG) | 0.793
44 | CGGTATCCATGGACCGGTTTTCCCGGTAATCCGTATTTGTT (site CGGAATCCTAA) | 0
45 | CGGTATCCATGGACCGGTTTTCCCGGTAATCCGTATTTGTT (site CGGCATCCTAA) | 0.493
46 | CGGTATCCATGGACCGGTTTTCCCGGTAATCCGTATTTGTT (site CGGGATCCTAA) | 0.0113

Row | Sequence | recombinant UMI read abundance (log10)
47 | CGGTATCCATGGACCGGTTTTCCCGGTAATCCGTATTTGTT (site CGGTATCCTAA) | 0.562
48 | CGGTCGTCATGGACCGGTTTTCCCGGTAATCCGTATTTGCA (site CGGTCGTCTTG) | 1.71
49 | CGGTGGCCATGGACCGGTTTTCCCGGTAATCCGTATTTGGG (site CGGTGGCCTCC) | 0.0062
50 | CGGTTATCATGGACCGGTTTTCCCGGTAATCCGTATTTGCT (site CGATCATCTAG) | 0
51 | CGGTTATCATGGACCGGTTTTCCCGGTAATCCGTATTTGCT (site CGGTTATCTAG) | 2.65
52 | CGGTTTACATGGACCGGTTTTCCCGGTAATCCGTATTTGCT (site CAGTTTACTAG) | 0
53 | CGGTTTACATGGACCGGTTTTCCCGGTAATCCGTATTTGCT (site CCGTTTACTAG) | 0.391
54 | CGGTTTACATGGACCGGTTTTCCCGGTAATCCGTATTTGCT (site CGGTTTACTAG) | 1.33
55 | CGGTTTACATGGACCGGTTTTCCCGGTAATCCGTATTTGCT (site CTGTTTACTAG) | 1.21
56 | CGTAAAGCATGGACCGGTTTTCCCGGTAATCCGTATTTGAT (site CATAAAGCTAT) | 0.355
57 | CGTAAAGCATGGACCGGTTTTCCCGGTAATCCGTATTTGAT (site CCTAAAGCTAT) | 0
58 | CGTAAAGCATGGACCGGTTTTCCCGGTAATCCGTATTTGAT (site CGTAAAGCTAT) | 2.44
59 | CGTAAAGCATGGACCGGTTTTCCCGGTAATCCGTATTTGAT (site CTTAAAGCTAT) | 0
60 | CGTAACACATGGACCGGTTTTCCCGGTAATCCGTATTTGCC (site CGTAACACTGG) | 2.01
61 | CGTAAGACATGGACCGGTTTTCCCGGTAATCCGTATTTGAG (site CGTAAGACTCT) | 1.73
62 | CGTAAGACATGGACCGGTTTTCCCGGTAATCCGTATTTGAG (site CGTCAGACTCT) | 0.0684
63 | CGTAAGACATGGACCGGTTTTCCCGGTAATCCGTATTTGAG (site CGTGAGACTCT) | 0.0574
64 | CGTAAGACATGGACCGGTTTTCCCGGTAATCCGTATTTGAG (site CGTTAGACTCT) | 0.396
65 | CGTACATCATGGACCGGTTTTCCCGGTAATCCGTATTTGCG (site CGTACATCTCG) | 1.29
66 | CGTACGTCATGGACCGGTTTTCCCGGTAATCCGTATTTGTT (site AGTACGTCTAA) | 0.0741
67 | CGTACGTCATGGACCGGTTTTCCCGGTAATCCGTATTTGTT (site CGTACGTCTAA) | 0.728
68 | CGTACGTCATGGACCGGTTTTCCCGGTAATCCGTATTTGTT (site GGTACGTCTAA) | 0.0115
